# Columns and labels:
# Assay in all cases: Kinase panel (Carna)
# Format in all cases: biochemical
# MAPKAPK5 = molecular target: T1, MAPKAPK5 (Homo sapiens, UniProt Q8IW41)
# T1 construct: purchased Carna Biosciences
# PKCζ = molecular target: T2, PKCζ (Homo sapiens, UniProt Q05513)
# T2 construct: purchased Carna Biosciences
# Excerpt: (§1) Detailed information on the assay conditions is available on the website of Carna Biosciences (http://www.carnabio.com).
# DDR2 = molecular target: T3, DDR2 (Homo sapiens, UniProt Q16832)
# T3 construct: purchased Carna Biosciences
# SPHK1 = molecular target: T4, SPHK1 (Homo sapiens, UniProt Q9NYA1)
# T4 construct: purchased Carna Biosciences
# Excerpt: as §1
# PHKG2 = molecular target: T5, PHKG2 (Homo sapiens, UniProt P15735)
# T5 construct: purchased Carna Biosciences
# Excerpt: as §1
# CK1α = molecular target: T6, CK1α (Homo sapiens, UniProt P48729)
# T6 construct: purchased Carna Biosciences
# EEF2K = molecular target: T7, EEF2K (Homo sapiens, UniProt O00418)
# T7 construct: purchased Carna Biosciences
# Excerpt: as §1
# FGFR4 = molecular target: T8, FGFR4 (Homo sapiens, UniProt P22455)
# T8 construct: purchased Carna Biosciences
# PEK = molecular target: T9, PEK (Homo sapiens, UniProt Q9NZJ5)
# T9 construct: purchased Carna Biosciences
# Excerpt: as §1
# MRCKα = molecular target: T10, MRCKα (Homo sapiens, UniProt Q5VT25)
# T10 construct: purchased Carna Biosciences
# IGF1R = molecular target: T11, IGF1R (Homo sapiens, UniProt P08069)
# T11 construct: purchased Carna Biosciences
# Excerpt: as §1
# PLK2 = molecular target: T12, PLK2 (Homo sapiens, UniProt Q9NYY3)
# T12 construct: purchased Carna Biosciences
# CDK6/CycD3 = molecular target: T13, CDK6/CycD3 (Homo sapiens, UniProt Q00534)
# T13 construct: purchased Carna Biosciences
# Excerpt: as §1
# MAP3K3_Cascade = molecular target: T14, MAP3K3_Cascade (Homo sapiens, UniProt Q99759)
# T14 construct: purchased Carna Biosciences
# Excerpt: as §1
# DLK_Cascade = molecular target: T15, DLK_Cascade (Homo sapiens, UniProt Q12852)
# T15 construct: purchased Carna Biosciences
# Excerpt: as §1
# TNIK = molecular target: T16, TNIK (Homo sapiens, UniProt Q9UKE5)
# T16 construct: purchased Carna Biosciences
# Excerpt: as §1
# HGK = molecular target: T17, HGK (Homo sapiens, UniProt O95819)
# T17 construct: purchased Carna Biosciences
# MST3 = molecular target: T18, MST3 (Homo sapiens, UniProt Q9Y6E0)
# T18 construct: purchased Carna Biosciences
# Excerpt: as §1
# IKKβ = molecular target: T19, IKKβ (Homo sapiens, UniProt O14920)
# T19 construct: purchased Carna Biosciences
# Excerpt: as §1
# MAP2K1_Cascade = molecular target: T20, MAP2K1_Cascade (Homo sapiens, UniProt Q02750)
# T20 construct: purchased Carna Biosciences
# TIE2 = molecular target: T21, TIE2 (Homo sapiens, UniProt Q02763)
# T21 construct: purchased Carna Biosciences
# Excerpt: as §1
# WNK2 = molecular target: T22, WNK2 (Homo sapiens, UniProt Q9Y3S1)
# T22 construct: purchased Carna Biosciences
# Excerpt: as §1
# IRAK4 = molecular target: T23, IRAK4 (Homo sapiens, UniProt Q9NWZ3)
# T23 construct: purchased Carna Biosciences
# Excerpt: as §1
# TXK = molecular target: T24, TXK (Homo sapiens, UniProt P42681)
# T24 construct: purchased Carna Biosciences
# Excerpt: as §1
# PKACγ = molecular target: T25, PKACγ (Homo sapiens, UniProt P22612)
# T25 construct: purchased Carna Biosciences
# EPHB2 = molecular target: T26, EPHB2 (Homo sapiens, UniProt P29323)
# T26 construct: purchased Carna Biosciences
# Excerpt: as §1
# CGK2 = molecular target: T27, CGK2 (Homo sapiens, UniProt Q13237)
# T27 construct: purchased Carna Biosciences
# Excerpt: as §1
# CHK1 = molecular target: T28, CHK1 (Homo sapiens, UniProt O14757)
# T28 construct: purchased Carna Biosciences
# Excerpt: as §1
# JNK1 = molecular target: T29, JNK1 (Homo sapiens, UniProt P45983)
# T29 construct: purchased Carna Biosciences
# Excerpt: as §1
# AKT1 = molecular target: T30, AKT1 (Homo sapiens, UniProt P31749)
# T30 construct: purchased Carna Biosciences
# Excerpt: as §1
# MLK3_Cascade = molecular target: T31, MLK3_Cascade (Homo sapiens, UniProt Q16584)
# T31 construct: purchased Carna Biosciences
# Excerpt: as §1
# RON = molecular target: T32, RON (Homo sapiens, UniProt Q04912)
# T32 construct: purchased Carna Biosciences
# Excerpt: as §1
# EPHA7 = molecular target: T33, EPHA7 (Homo sapiens, UniProt Q15375)
# T33 construct: purchased Carna Biosciences
# PKCη = molecular target: T34, PKCη (Homo sapiens, UniProt P24723)
# T34 construct: purchased Carna Biosciences
# Excerpt: as §1
# BRSK2 = molecular target: T35, BRSK2 (Homo sapiens, UniProt Q8IWQ3)
# T35 construct: purchased Carna Biosciences
# Excerpt: as §1
# MELK = molecular target: T36, MELK (Homo sapiens, UniProt Q14680)
# T36 construct: purchased Carna Biosciences
# Excerpt: as §1
# EPHA6 = molecular target: T37, EPHA6 (Homo sapiens, UniProt Q9UF33)
# T37 construct: purchased Carna Biosciences
# IRAK1 = molecular target: T38, IRAK1 (Homo sapiens, UniProt P51617)
# T38 construct: purchased Carna Biosciences
# Excerpt: as §1
# MAP3K4_Cascade = molecular target: T39, MAP3K4_Cascade (Homo sapiens, UniProt Q9Y6R4)
# T39 construct: purchased Carna Biosciences
# Excerpt: as §1
# PIK3CA/PIK3R1 = molecular target: T40, PIK3CA/PIK3R1 (Homo sapiens, UniProt P42336)
# T40 construct: purchased Carna Biosciences
# Excerpt: as §1
# BTK = molecular target: T41, BTK (Homo sapiens, UniProt Q06187)
# T41 construct: purchased Carna Biosciences
# Excerpt: as §1
# PKCγ = molecular target: T42, PKCγ (Homo sapiens, UniProt P05129)
# T42 construct: purchased Carna Biosciences
# Excerpt: as §1
# Erk2 = molecular target: T43, Erk2 (Homo sapiens, UniProt P28482)
# T43 construct: purchased Carna Biosciences
# MST4 = molecular target: T44, MST4 (Homo sapiens, UniProt Q9P289)
# T44 construct: purchased Carna Biosciences
# Excerpt: as §1
# T9 sequence (Q9NZJ5 30-1116): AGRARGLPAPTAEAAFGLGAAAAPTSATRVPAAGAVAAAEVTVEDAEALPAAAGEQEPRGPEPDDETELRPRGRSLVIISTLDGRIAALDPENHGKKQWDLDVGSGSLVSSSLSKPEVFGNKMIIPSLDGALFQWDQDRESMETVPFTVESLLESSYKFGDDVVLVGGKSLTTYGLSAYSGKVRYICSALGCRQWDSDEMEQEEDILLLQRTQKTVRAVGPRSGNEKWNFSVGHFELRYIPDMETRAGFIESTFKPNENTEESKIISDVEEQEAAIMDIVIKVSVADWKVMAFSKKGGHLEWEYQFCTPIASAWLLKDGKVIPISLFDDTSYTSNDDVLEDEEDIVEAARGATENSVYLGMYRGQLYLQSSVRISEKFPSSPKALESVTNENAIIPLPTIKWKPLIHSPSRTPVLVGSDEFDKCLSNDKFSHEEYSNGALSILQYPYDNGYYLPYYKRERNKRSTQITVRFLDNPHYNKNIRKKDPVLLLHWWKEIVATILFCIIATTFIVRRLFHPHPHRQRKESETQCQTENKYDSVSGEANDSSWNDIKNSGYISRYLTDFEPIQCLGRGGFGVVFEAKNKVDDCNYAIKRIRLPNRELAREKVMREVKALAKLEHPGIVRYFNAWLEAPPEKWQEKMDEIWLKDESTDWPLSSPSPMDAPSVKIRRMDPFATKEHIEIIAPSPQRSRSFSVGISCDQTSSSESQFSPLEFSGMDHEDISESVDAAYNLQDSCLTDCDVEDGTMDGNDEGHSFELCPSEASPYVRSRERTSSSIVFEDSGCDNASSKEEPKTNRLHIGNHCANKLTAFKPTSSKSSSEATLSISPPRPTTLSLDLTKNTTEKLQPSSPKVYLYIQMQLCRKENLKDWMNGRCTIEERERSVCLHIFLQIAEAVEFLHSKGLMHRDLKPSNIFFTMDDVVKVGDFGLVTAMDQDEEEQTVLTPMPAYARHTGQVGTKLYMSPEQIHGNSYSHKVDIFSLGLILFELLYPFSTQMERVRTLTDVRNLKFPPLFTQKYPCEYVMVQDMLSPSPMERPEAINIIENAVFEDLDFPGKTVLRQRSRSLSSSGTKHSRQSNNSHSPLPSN
# T21 sequence (Q02763 23-1124): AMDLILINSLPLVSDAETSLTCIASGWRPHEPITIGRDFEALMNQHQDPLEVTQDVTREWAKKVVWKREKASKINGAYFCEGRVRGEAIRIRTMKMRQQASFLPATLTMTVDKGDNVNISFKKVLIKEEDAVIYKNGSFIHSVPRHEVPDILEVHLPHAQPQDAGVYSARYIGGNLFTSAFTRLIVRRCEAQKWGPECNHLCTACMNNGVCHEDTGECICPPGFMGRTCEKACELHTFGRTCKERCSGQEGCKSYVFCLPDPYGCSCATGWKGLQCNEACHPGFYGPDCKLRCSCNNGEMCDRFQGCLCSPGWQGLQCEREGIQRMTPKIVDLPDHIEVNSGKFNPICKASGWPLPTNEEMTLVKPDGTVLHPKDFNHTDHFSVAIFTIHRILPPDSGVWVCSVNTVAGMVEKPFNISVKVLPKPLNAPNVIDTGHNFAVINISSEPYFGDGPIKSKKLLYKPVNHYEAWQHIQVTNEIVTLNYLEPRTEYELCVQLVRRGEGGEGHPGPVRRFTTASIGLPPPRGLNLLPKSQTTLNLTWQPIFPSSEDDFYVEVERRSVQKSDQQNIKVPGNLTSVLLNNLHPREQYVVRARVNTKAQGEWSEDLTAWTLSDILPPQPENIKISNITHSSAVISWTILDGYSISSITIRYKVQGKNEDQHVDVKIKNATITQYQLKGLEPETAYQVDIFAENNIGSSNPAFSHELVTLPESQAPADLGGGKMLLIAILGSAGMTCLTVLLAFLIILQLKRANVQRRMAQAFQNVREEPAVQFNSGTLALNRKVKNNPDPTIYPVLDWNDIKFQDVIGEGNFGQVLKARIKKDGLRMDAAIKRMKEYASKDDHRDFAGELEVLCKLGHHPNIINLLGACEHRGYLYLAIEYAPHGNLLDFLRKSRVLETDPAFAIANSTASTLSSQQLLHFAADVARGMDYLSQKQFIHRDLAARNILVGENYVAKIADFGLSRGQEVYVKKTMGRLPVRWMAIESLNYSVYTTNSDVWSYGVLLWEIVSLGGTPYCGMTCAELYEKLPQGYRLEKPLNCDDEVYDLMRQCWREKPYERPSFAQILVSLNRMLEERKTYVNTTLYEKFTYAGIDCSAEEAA
# T2 sequence (Q05513 whole entry): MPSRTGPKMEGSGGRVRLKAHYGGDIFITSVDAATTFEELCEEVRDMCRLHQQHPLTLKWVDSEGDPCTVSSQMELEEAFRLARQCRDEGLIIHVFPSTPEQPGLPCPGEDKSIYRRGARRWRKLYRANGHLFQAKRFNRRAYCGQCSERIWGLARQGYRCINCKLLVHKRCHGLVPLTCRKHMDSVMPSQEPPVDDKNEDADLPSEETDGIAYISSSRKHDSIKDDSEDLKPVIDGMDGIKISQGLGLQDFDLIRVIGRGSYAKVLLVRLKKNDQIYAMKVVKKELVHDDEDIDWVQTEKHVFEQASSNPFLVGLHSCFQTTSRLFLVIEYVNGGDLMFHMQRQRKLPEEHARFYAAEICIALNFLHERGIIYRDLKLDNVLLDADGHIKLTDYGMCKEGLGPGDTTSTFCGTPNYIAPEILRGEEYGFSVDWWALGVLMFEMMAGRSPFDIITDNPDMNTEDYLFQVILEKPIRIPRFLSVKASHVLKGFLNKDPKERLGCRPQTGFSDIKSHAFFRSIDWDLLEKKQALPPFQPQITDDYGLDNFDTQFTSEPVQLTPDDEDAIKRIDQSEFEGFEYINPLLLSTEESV
# T24 sequence (P42681 whole entry): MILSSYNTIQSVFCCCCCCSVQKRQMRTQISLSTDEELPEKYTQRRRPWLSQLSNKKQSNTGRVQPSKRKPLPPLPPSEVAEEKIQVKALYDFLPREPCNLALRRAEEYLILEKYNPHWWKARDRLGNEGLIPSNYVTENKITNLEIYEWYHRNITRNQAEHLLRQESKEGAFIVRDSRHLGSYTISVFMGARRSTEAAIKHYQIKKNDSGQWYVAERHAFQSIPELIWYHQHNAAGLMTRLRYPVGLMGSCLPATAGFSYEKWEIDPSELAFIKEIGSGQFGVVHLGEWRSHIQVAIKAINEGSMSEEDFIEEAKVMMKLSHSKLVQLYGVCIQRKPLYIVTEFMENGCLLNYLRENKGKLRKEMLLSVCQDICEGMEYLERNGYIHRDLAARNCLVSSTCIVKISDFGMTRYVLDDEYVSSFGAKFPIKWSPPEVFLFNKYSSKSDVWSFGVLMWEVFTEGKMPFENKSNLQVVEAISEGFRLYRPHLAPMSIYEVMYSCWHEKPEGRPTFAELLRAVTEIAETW
# T36 sequence (Q14680 whole entry): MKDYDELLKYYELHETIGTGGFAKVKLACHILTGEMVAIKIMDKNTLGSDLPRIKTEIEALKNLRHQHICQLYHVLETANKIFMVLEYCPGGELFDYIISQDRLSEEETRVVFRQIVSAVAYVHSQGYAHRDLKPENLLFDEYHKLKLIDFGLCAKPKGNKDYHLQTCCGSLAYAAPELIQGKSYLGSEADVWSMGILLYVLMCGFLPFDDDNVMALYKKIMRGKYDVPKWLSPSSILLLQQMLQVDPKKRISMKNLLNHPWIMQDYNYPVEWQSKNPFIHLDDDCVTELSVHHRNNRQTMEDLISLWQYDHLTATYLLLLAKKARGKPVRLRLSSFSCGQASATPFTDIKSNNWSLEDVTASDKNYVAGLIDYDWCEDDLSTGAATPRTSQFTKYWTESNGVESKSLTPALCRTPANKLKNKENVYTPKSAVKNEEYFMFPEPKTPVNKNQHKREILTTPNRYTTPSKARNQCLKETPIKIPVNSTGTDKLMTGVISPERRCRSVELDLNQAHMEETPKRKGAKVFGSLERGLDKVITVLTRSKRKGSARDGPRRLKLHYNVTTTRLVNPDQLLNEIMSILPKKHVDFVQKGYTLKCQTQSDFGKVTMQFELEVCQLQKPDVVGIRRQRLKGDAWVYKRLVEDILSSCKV
# T26 sequence (P29323 19-1055): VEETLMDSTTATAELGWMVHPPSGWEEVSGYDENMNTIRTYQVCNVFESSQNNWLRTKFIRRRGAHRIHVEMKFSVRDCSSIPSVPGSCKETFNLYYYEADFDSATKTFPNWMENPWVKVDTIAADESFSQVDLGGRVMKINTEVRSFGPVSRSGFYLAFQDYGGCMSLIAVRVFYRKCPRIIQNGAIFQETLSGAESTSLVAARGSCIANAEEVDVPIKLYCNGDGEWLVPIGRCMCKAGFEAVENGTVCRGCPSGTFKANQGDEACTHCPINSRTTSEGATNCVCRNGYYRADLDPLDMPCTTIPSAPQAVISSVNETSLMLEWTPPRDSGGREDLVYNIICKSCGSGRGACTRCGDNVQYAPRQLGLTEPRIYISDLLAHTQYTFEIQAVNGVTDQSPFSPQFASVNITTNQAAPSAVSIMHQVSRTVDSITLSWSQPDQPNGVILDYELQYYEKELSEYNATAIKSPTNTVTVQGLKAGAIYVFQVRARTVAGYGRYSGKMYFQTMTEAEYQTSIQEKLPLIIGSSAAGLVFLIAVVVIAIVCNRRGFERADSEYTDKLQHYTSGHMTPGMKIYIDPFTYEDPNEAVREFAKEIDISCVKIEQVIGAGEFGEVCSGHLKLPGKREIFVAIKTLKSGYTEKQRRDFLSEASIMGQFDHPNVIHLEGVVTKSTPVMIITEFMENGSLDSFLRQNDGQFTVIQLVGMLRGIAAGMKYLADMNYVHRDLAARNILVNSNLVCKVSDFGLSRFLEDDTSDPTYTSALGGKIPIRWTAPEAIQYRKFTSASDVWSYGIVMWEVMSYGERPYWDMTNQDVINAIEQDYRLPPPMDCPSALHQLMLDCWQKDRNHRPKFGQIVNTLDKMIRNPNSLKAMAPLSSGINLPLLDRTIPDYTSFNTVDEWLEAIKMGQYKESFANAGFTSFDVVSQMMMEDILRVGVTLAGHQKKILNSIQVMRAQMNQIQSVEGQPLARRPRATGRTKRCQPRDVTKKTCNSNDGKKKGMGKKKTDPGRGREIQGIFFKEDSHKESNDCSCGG
smiles,measurement,setting,value
COc1ccc(/C=C2\SC(=S)NC2=O)cc1C#C[Si](C)(C)C [FINDY],inhibition at 10 µM,MAPKAPK5,5.2%
same,inhibition at 10 µM,PKCζ,-6.1%
same,inhibition at 10 µM,DDR2,13.5%
same,inhibition at 10 µM,SPHK1,51.2%
same,inhibition at 10 µM,PHKG2,1.9%
same,inhibition at 10 µM,CK1α,6.1%
same,inhibition at 10 µM,EEF2K,-3.7%
same,inhibition at 10 µM,FGFR4,6.9%
same,inhibition at 10 µM,PEK,13%
same,inhibition at 10 µM,MRCKα,2.7%
same,inhibition at 10 µM,IGF1R,2.4%
same,inhibition at 10 µM,PLK2,11.1%
same,inhibition at 10 µM,CDK6/CycD3,3.2%
same,inhibition at 10 µM,MAP3K3_Cascade,3.3%
same,inhibition at 10 µM,DLK_Cascade,23.5%
same,inhibition at 10 µM,TNIK,10.7%
same,inhibition at 10 µM,HGK,13.4%
same,inhibition at 10 µM,MST3,6.4%
same,inhibition at 10 µM,IKKβ,-3.5%
same,inhibition at 10 µM,MAP2K1_Cascade,44.2%
same,inhibition at 10 µM,TIE2,55.7%
same,inhibition at 10 µM,WNK2,12.3%
same,inhibition at 10 µM,IRAK4,-0.8%
same,inhibition at 10 µM,TXK,23.7%
same,inhibition at 10 µM,PKACγ,17.8%
same,inhibition at 10 µM,EPHB2,10.1%
same,inhibition at 10 µM,CGK2,14.6%
same,inhibition at 10 µM,CHK1,-119%
same,inhibition at 10 µM,JNK1,1.5%
same,inhibition at 10 µM,AKT1,36.6%
same,inhibition at 10 µM,MLK3_Cascade,40.5%
same,inhibition at 10 µM,RON,9.2%
same,inhibition at 10 µM,EPHA7,18.7%
same,inhibition at 10 µM,PKCη,-12.7%
same,inhibition at 10 µM,BRSK2,5.7%
same,inhibition at 10 µM,MELK,20.6%
same,inhibition at 10 µM,EPHA6,59.4%
same,inhibition at 10 µM,IRAK1,-1.1%
same,inhibition at 10 µM,MAP3K4_Cascade,39.8%
same,inhibition at 10 µM,PIK3CA/PIK3R1,12.8%
same,inhibition at 10 µM,BTK,57.9%
same,inhibition at 10 µM,PKCγ,4.1%
same,inhibition at 10 µM,Erk2,36.4%
same,inhibition at 10 µM,MST4,16.7%

# Source: PMC4844702, “Selective inhibition of the kinase DYRK1A by targeting its folding process” (Nature Communications, 2016)
